Source: the NIST ThermoML archive (doi:10.1016/j.jct.2013.11.003)

Details: Liquid, Transpiration method

COc1cccs1 [2-methoxythiophene]
Details	vapor or sublimation pressure [kPa]
278.1 K	0.1302
281 K	0.1585
283 K	0.1804
285.9 K	0.2284
287.8 K	0.2708
290.7 K	0.3244
292.7 K	0.3939
295.7 K	0.4587
297.6 K	0.5406
300.6 K	0.6383
302.6 K	0.6976
305.6 K	0.8682
307.6 K	0.9894
310.6 K	1.147
312.6 K	1.336
312.7 K	1.299
313.6 K	1.366
315.6 K	1.559
318.6 K	1.83
321.7 K	2.196
323.7 K	2.471

COc1ccsc1 [3-methoxythiophene]
Details	vapor or sublimation pressure [kPa]
278.1 K	0.089
281 K	0.1105
283.9 K	0.1366
286.8 K	0.1662
289.7 K	0.2094
292.6 K	0.2646
295.7 K	0.32
297.6 K	0.3561
300.6 K	0.4274
303.6 K	0.5203
306.6 K	0.6282
309.6 K	0.7649
312.6 K	0.9169
315.7 K	1.078
318.7 K	1.313
321.7 K	1.536
324.7 K	1.765
